Measurements taken from ChEMBL document CHEMBL2062485, “Structural characterization and antimicrobial evaluation of atractyloside, atractyligenin, and 15-didehydroatractyligenin methyl ester” (2012).

Legend:
Format in all cases: functional
Staphylococcus aureus [1] = assay: Antibacterial activity against Staphylococcus aureus […] by MTT assay
Staphylococcus aureus [2] = assay: Antibacterial activity against epidemic methicillin-resistant Staphylococcus aureus isolate 15 by MTT assay
Staphylococcus aureus [3] = assay: Antibacterial activity against floroquinilone-resistant Staphylococcus aureus SA1199B by MTT assay
Staphylococcus aureus [4] = assay: Antibacterial activity against epidemic methicillin-resistant Staphylococcus aureus isolate 16 by MTT assay

Measured: MIC

C=C1C(=O)[C@@]23CC[C@@H]4[C@H](C(=O)OC)C[C@@H](O)C[C@@]4(C)[C@@H]2CC[C@H]1C3
128 µg/mL: Staphylococcus aureus [1] | Staphylococcus aureus [2] | Staphylococcus aureus [3] | Staphylococcus aureus [4]
